Data reported in US8940936B2, “Aryloxy phenoxy acrylic compound having HIF-1 inhibition activity, method for preparing same, and pharmaceutical composition containing same as an active ingredient” (Korea Research Institute of Bioscience and Biotechnology, priority 2010, dated 2015).

System: HIF-1
Assay: Inhibition of HIF-1 mediated HRE transcription activity (pGL3-HRE-luciferase reporter)
Type: cell-based, human
Conditions: HCT116, hypoxic condition 12 hours
Procedure: To investigate the inhibition of HIF-1 transcription activity by the compound of the present invention, pGL3-basic vector (Promega) using luciferase as a reporter was cloned in multi-cloning site so as for HRE (Hypoxia Responsive Element, 5′-ACGTG-3′) existing in human VEGF gene to be repeated 6 times, resulting in the construction of pGL3-HRE-luciferase vector.
The human rectal cancer cell line HCT116 was seeded in a 48-well cell culture vessel. On the next day, the cells were transfected with 25 ng of pGL3-HRE-luciferase vector and 2.5 ng of Renilla control vector by using Polyfect reagent. After culturing the cells for 24 hours, the medium was replaced, followed by further culture for 4 hours. Then, the cells were treated with the compound prepared in each example at the concentration of 10 μM respectively, followed by culture in hypoxic condition (oxygen 1%, nitrogen 94%, carbon dioxide 5%) for 12 hours. Lysate was obtained by using RIPA buffer, by which hypoxia-induced luciferase activity was measured by using dual-luciferase assay system (Promega). Hypoxia-induced luciferase activity after the treatment of the compound prepared in example 1 or the compound prepared in comparative example 1 was measured by the same manner as described above except that the compound was treated at the concentrations of 0, 1, 3, 5, 10, and 20 μM. HIF-1 inhibition activity of each compound prepared in example 1 and comparative example 1 respectively was compared and the results are shown in Table 2 and FIG. 2.

SMILES: COC(=O)c1ccc(O)c(NC(=O)COc2ccc(C34CC5CC(CC(C5)C3)C4)cc2)c1 [Comparative Example 1, 3-[2-(4-adamantan-1-yl-phenoxy)-acetylamino]-4-hydroxy-benzoic acid methyl ester, reference compound]
- HRE transcription activity (%) (1 μM): 119.4%
- HRE transcription activity (%) (3 μM): 121.5%
- HRE transcription activity (%) (5 μM): 98.8%
- HRE transcription activity (%) (10 μM): 75.6%
- HRE transcription activity (%) (20 μM): 43.1%
